Data published in ChEMBL document CHEMBL1201862, “PubChem BioAssay data set” (2004).
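Briefly, cells in 96-well plates were exposed to five compound concentrations for 48 h, and endpoints were estimated by linear interpolation. The concentration for 50% growth inhibition is given as GI50.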 The source made the active and inactive calls. Cut-off read from the data, not from the text of the source: active = GI50 up to about 1.1 µM and inactive = higher.

Columns and labels:
Experiment in all cases: growth of human tumour cells (NCI), 48 h
786-0 = system: 786-0
A549 = system: A549
ACHN = system: ACHN
CAKI-1 = system: CAKI-1
CCRF-CEM = system: CCRF-CEM
COLO 205 = system: COLO 205
DLD-1 = system: DLD-1
DMS-114 = system: DMS-114
DMS-273 = system: DMS-273
EKVX = system: EKVX
HCC 2998 = system: HCC 2998
HCT-116 = system: HCT-116
HCT-15 = system: HCT-15
HL-60 = system: HL-60
HOP-62 = system: HOP-62
HOP-92 = system: HOP-92
HT-29 = system: HT-29
IGROV-1 = system: IGROV-1
K562 = system: K562
KM-20L2 = system: KM-20L2
KM12 = system: KM12
LOX IMVI = system: LOX IMVI
LXFL 529 = system: LXFL 529
MOLT-4 = system: MOLT-4
Malme-3M = system: Malme-3M
NCI-H226 = system: NCI-H226
NCI-H23 = system: NCI-H23
NCI-H460 = system: NCI-H460
NCI-H522 = system: NCI-H522
OVCAR-3 = system: OVCAR-3
OVCAR-8 = system: OVCAR-8
RPMI-8226 = system: RPMI-8226
RXF 393 = system: RXF 393
RXF 631 = system: RXF 631
SF-268 = system: SF-268
SF-295 = system: SF-295
SF-539 = system: SF-539
SK-MEL-28 = system: SK-MEL-28
SK-MEL-2 = system: SK-MEL-2
SK-MEL-5 = system: SK-MEL-5
SK-OV-3 = system: SK-OV-3
SN12C = system: SN12C
SNB-19 = system: SNB-19
SR = system: SR
SW-620 = system: SW-620
TK-10 = system: TK-10
U-251 = system: U-251
UACC-257 = system: UACC-257
UACC-62 = system: UACC-62
A498 = system: A498
HOP-18 = system: HOP-18
M14 = system: M14
OVCAR-4 = system: OVCAR-4
OVCAR-5 = system: OVCAR-5
SNB-75 = system: SNB-75
SNB-78 = system: SNB-78
UO-31 = system: UO-31

Cn1c2c(c3ccccc31)C1C(=O)N(c3ccccc3)C(=O)C1CC2 (centres undefined)
GI50 (786-0): > 303 µM (inactive)
GI50 (A549): > 303 µM (inactive)
GI50 (ACHN): > 303 µM (inactive)
GI50 (CAKI-1): > 303 µM (inactive)
GI50 (CCRF-CEM): > 303 µM (inactive)
GI50 (COLO 205): > 303 µM (inactive)
GI50 (DLD-1): > 303 µM (inactive)
GI50 (DMS-114): > 303 µM (inactive)
GI50 (DMS-273): > 303 µM (inactive)
GI50 (EKVX): > 303 µM (inactive)
GI50 (HCC 2998): > 303 µM (inactive)
GI50 (HCT-116): 294 µM (inactive)
GI50 (HCT-15): > 303 µM
GI50 (HL-60): > 303 µM (inactive)
GI50 (HOP-62): > 303 µM (inactive)
GI50 (HOP-92): > 303 µM (inactive)
GI50 (HT-29): > 303 µM (inactive)
GI50 (IGROV-1): > 303 µM (inactive)
GI50 (K562): > 303 µM (inactive)
GI50 (KM-20L2): > 303 µM (inactive)
GI50 (KM12): > 303 µM (inactive)
GI50 (LOX IMVI): > 303 µM (inactive)
GI50 (LXFL 529): > 303 µM (inactive)
GI50 (MOLT-4): > 303 µM (inactive)
GI50 (Malme-3M): > 303 µM (inactive)
GI50 (NCI-H226): 85.5 µM (inactive)
GI50 (NCI-H23): > 303 µM (inactive)
GI50 (NCI-H460): > 303 µM (inactive)
GI50 (NCI-H522): 243 µM (inactive)
GI50 (OVCAR-3): 123 µM (inactive)
GI50 (OVCAR-8): > 303 µM (inactive)
GI50 (RPMI-8226): > 303 µM (inactive)
GI50 (RXF 393): > 303 µM (inactive)
GI50 (RXF 631): > 303 µM (inactive)
GI50 (SF-268): > 303 µM (inactive)
GI50 (SF-295): > 303 µM (inactive)
GI50 (SF-539): > 303 µM (inactive)
GI50 (SK-MEL-28): > 303 µM (inactive)
GI50 (SK-MEL-2): > 303 µM (inactive)
GI50 (SK-MEL-5): > 303 µM (inactive)
GI50 (SK-OV-3): > 303 µM (inactive)
GI50 (SN12C): > 303 µM (inactive)
GI50 (SNB-19): 111 µM (inactive)
GI50 (SR): > 303 µM (inactive)
GI50 (SW-620): > 303 µM (inactive)
GI50 (TK-10): > 303 µM (inactive)
GI50 (U-251): > 303 µM (inactive)
GI50 (UACC-257): > 303 µM (inactive)
GI50 (UACC-62): > 303 µM (inactive)

Nc1nc(-c2ccccc2)cc(-c2cc(Cl)ccc2O)n1
GI50 (786-0): 55 µM (inactive)
GI50 (A498): > 100 µM (inactive)
GI50 (A549): 42.7 µM (inactive)
GI50 (ACHN): 25.6 µM (inactive)
GI50 (CAKI-1): 74.5 µM (inactive)
GI50 (CCRF-CEM): > 100 µM (inactive)
GI50 (COLO 205): > 100 µM (inactive)
GI50 (DLD-1): 98.2 µM (inactive)
GI50 (DMS-114): 55.6 µM (inactive)
GI50 (DMS-273): 44.7 µM (inactive)
GI50 (EKVX): 46.9 µM (inactive)
GI50 (HCC 2998): > 100 µM (inactive)
GI50 (HCT-116): 39.7 µM (inactive)
GI50 (HCT-15): > 100 µM
GI50 (HL-60): > 100 µM (inactive)
GI50 (HOP-18): > 100 µM (inactive)
GI50 (HOP-62): 29.1 µM (inactive)
GI50 (HOP-92): > 100 µM (inactive)
GI50 (HT-29): > 100 µM (inactive)
GI50 (IGROV-1): 49.3 µM (inactive)
GI50 (K562): > 100 µM (inactive)
GI50 (KM-20L2): > 100 µM (inactive)
GI50 (KM12): 50.9 µM (inactive)
GI50 (LOX IMVI): 54 µM (inactive)
GI50 (LXFL 529): 48.3 µM (inactive)
GI50 (M14): > 100 µM (inactive)
GI50 (MOLT-4): > 100 µM (inactive)
GI50 (Malme-3M): > 100 µM (inactive)
GI50 (NCI-H226): > 100 µM (inactive)
GI50 (NCI-H23): 45.7 µM (inactive)
GI50 (NCI-H460): 43.9 µM (inactive)
GI50 (NCI-H522): 25.9 µM (inactive)
GI50 (OVCAR-3): 35.7 µM (inactive)
GI50 (OVCAR-4): 63.8 µM (inactive)
GI50 (OVCAR-5): > 100 µM (inactive)
GI50 (OVCAR-8): 32.9 µM (inactive)
GI50 (RPMI-8226): > 100 µM (inactive)
GI50 (RXF 393): 64.3 µM (inactive)
GI50 (RXF 631): > 100 µM (inactive)
GI50 (SF-268): 49.4 µM (inactive)
GI50 (SF-295): 83.6 µM (inactive)
GI50 (SF-539): 31.6 µM (inactive)
GI50 (SK-MEL-28): > 100 µM (inactive)
GI50 (SK-OV-3): 34.2 µM (inactive)
GI50 (SN12C): > 100 µM (inactive)
GI50 (SNB-19): 53.8 µM (inactive)
GI50 (SNB-75): 28.7 µM (inactive)
GI50 (SNB-78): > 100 µM (inactive)
GI50 (SR): > 100 µM (inactive)
GI50 (SW-620): > 100 µM (inactive)
GI50 (TK-10): 54.2 µM (inactive)
GI50 (U-251): 35.6 µM (inactive)
GI50 (UACC-257): > 100 µM (inactive)
GI50 (UACC-62): > 100 µM (inactive)
GI50 (UO-31): 39.9 µM (inactive)

CCC(C)COC(=O)c1ccc(/N=C\c2ccc(/C=N/c3ccc(C(=O)OCC(C)CC)cc3)cc2)cc1 (centres undefined)
GI50 (786-0): > 100 µM (inactive)
GI50 (A498): > 100 µM (inactive)
GI50 (A549): > 100 µM (inactive)
GI50 (ACHN): > 100 µM (inactive)
GI50 (CAKI-1): > 100 µM (inactive)
GI50 (CCRF-CEM): > 100 µM (inactive)
GI50 (COLO 205): > 100 µM (inactive)
GI50 (DLD-1): > 100 µM (inactive)
GI50 (DMS-114): > 100 µM (inactive)
GI50 (DMS-273): > 100 µM (inactive)
GI50 (EKVX): > 100 µM (inactive)
GI50 (HCC 2998): > 100 µM (inactive)
GI50 (HCT-116): > 100 µM (inactive)
GI50 (HCT-15): > 100 µM
GI50 (HL-60): > 100 µM (inactive)
GI50 (HOP-18): > 100 µM (inactive)
GI50 (HOP-62): > 100 µM (inactive)
GI50 (HOP-92): > 100 µM (inactive)
GI50 (HT-29): > 100 µM (inactive)
GI50 (IGROV-1): > 100 µM (inactive)
GI50 (K562): > 100 µM (inactive)
GI50 (KM-20L2): > 100 µM (inactive)
GI50 (LOX IMVI): > 100 µM (inactive)
GI50 (LXFL 529): > 100 µM (inactive)
GI50 (M14): > 100 µM (inactive)
GI50 (MOLT-4): > 100 µM (inactive)
GI50 (Malme-3M): > 100 µM (inactive)
GI50 (NCI-H226): > 100 µM (inactive)
GI50 (NCI-H23): > 100 µM (inactive)
GI50 (NCI-H460): > 100 µM (inactive)
GI50 (NCI-H522): > 100 µM (inactive)
GI50 (OVCAR-3): > 100 µM (inactive)
GI50 (OVCAR-4): > 100 µM (inactive)
GI50 (OVCAR-5): > 100 µM (inactive)
GI50 (OVCAR-8): > 100 µM (inactive)
GI50 (RPMI-8226): > 100 µM (inactive)
GI50 (RXF 393): > 100 µM (inactive)
GI50 (RXF 631): > 100 µM (inactive)
GI50 (SF-268): > 100 µM (inactive)
GI50 (SF-295): > 100 µM (inactive)
GI50 (SF-539): > 100 µM (inactive)
GI50 (SK-MEL-28): > 100 µM (inactive)
GI50 (SK-MEL-2): > 100 µM (inactive)
GI50 (SK-MEL-5): > 100 µM (inactive)
GI50 (SK-OV-3): > 100 µM (inactive)
GI50 (SN12C): > 100 µM (inactive)
GI50 (SNB-19): > 100 µM (inactive)
GI50 (SNB-75): > 100 µM (inactive)
GI50 (SNB-78): > 100 µM (inactive)
GI50 (SR): > 100 µM (inactive)
GI50 (SW-620): > 100 µM (inactive)
GI50 (U-251): > 100 µM (inactive)
GI50 (UACC-257): > 100 µM (inactive)
GI50 (UACC-62): > 100 µM (inactive)
GI50 (UO-31): 10.5 µM (inactive)
